Source: article PMC7982615, “Phase 1 study of telisotuzumab vedotin in Japanese patients with advanced solid tumors” (Cancer Medicine, 2021)
Like-named read-outs stand apart in the source and are kept apart here. Marks after values point to notes of the source that are not given here. Non-standard residues stand in square brackets, D forms with d. Residues, ends and D or L forms follow the SMILES beside them. *: point of attachment. Dolaproine = CO[C@@H]([C@@H]1CCCN1)[C@@H](C)C(=O)O; Dil = CC[C@H](C)[C@H](NC)[C@@H](CC(=O)O)OC; X1 = C[C@@H](N*)[C@@H](O)c1ccccc1; NMeV = CN[C@H](C(=O)O)C(C)C

Columns and labels:
[1] = test system: CD30‐positive Hodgkin lymphoma or systemic anaplastic large cell lymphoma; parameters: method as in PMID 24814862; details: US and Japanese patients; cited from earlier work
[2] = Pharmacokinetics of teliso‐v conjugate and MMAE, noncompartmental; assay type: in vivo, human; details: for AUCtau, MMAE / Cmax, MMAE: geometric mean (%CV); for t1/2, MMAE: harmonic mean (min-max); for Tmax, MMAE: median (min-max)
Procedure: PK samples were also collected on cycles 2 and 4 predose and approximately 30 minutes after the end of infusion on day 1. PK parameters such as peak concentration (Cmax), time to peak concentration, area under the concentration‐time curve (AUC), and terminal half‐life (t1/2) were determined using noncompartmental methods.

[3] = test system: MET exon 14‐mutated NSCLC; parameters: method as in earlier work; details: cited from earlier work
[4] = cycle 1, after teliso-v 2.4 mg/kg IV, n = 3
[5] = cycle 1, after teliso-v 2.7 mg/kg IV, n = 6

In the case of brentuximab vedotin, the “Ethnic differences in PK” value [1] is given as “no remarkable ethnic differences in PK were found”.

With `CC[C@H](C)[C@@H]([C@@H](CC(=O)N1CCC[C@H]1[C@H](OC)[C@@H](C)C(=O)N[C@H](C)[C@@H](O)c1ccccc1)OC)N(C)C(=O)[C@@H](NC(=O)[C@@H](NC)C(C)C)C(C)C` [MMAE, monomethyl auristatin E] (H-[NMeV]V[Dil][Dolaproine]-X1) the t1/2 ([2]; N = 9, both dose levels) was 96 to 140 h, the “AUCtau, MMAE” value [2, 4] was 535 (7) ng*h/mL and the “Cmax, MMAE” value [2, 4] was 1.69 (10) ng/mL. For the same molecule, the “t1/2, MMAE” value [2, 4] was 5.80 (4.5–7.8) days, the “Tmax, MMAE” value [2, 4] was 168.5 (72.5–168.5) h and the “t1/2, MMAE” value ([2]; cycle 1, after teliso-v 2.7 mg/kg IV, N = 4) was 4.01 (3–5.6)^c days. For the same molecule, the “AUCtau, MMAE” value [2, 5] was 764 (78) ng*h/mL, the “Cmax, MMAE” value [2, 5] was 2.80 (77) ng/mL and the “Tmax, MMAE” value [2, 5] was 168.5 (72.5–168.5) h. The “Plasma Cmax, preliminary geometric mean” value ([2]; first dose of teliso‐v, cycle 1, across 2.4 and 2.7 mg/kg) was 1.69 to 2.80 ng/mL and the “Accumulation in cycle 3” value ([2]; multiple dosing Q3 W) was 1.1–1.2 fold.

In the case of `CNC(=O)c1ccc(-c2cnc3ncc(Cc4ccc5ncccc5c4)n3n2)cc1F` [capmatinib], the ORR ([3]; one to two prior lines of treatment) is listed as 39.1% and the ORR ([3]; treatment‐naive patients) is listed as 71.4%.
